Test results: ChEMBL document CHEMBL1201862, “PubChem BioAssay data set” (2004)
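Briefly, cells in 96-well plates were exposed to five compound concentrations for 48 h, and endpoints were estimated by linear interpolation. GI50 is the concentration that inhibits growth by half.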 The source made the active and inactive calls. No stated cut-off is given here; in the data, active = GI50 up to about 1.1 µM and inactive = higher.

Assays:
Test in all cases: DTP human tumour cell line panel, 48 h
[1] = system: 786-0
[2] = system: A498
[3] = system: A549
[4] = system: ACHN
[5] = system: BT-549
[6] = system: CAKI-1
[7] = system: CCRF-CEM
[8] = system: COLO 205
[9] = system: DU-145
[10] = system: EKVX
[11] = system: HCC 2998
[12] = system: HCT-116
[13] = system: HCT-15
[14] = system: HOP-62
[15] = system: HT-29
[16] = system: Hs-578T
[17] = system: K562
[18] = system: KM12
[19] = system: LOX IMVI
[20] = system: M14
[21] = system: MCF7
[22] = system: MDA-MB-231
[23] = system: MDA-MB-435
[24] = system: MDA-N
[25] = system: Malme-3M
[26] = system: NCI-H226
[27] = system: NCI-H23
[28] = system: NCI-H460
[29] = system: NCI/ADR-RES
[30] = system: OVCAR-3
[31] = system: OVCAR-4
[32] = system: OVCAR-5
[33] = system: OVCAR-8
[34] = system: PC-3
[35] = system: RPMI-8226
[36] = system: RXF 393
[37] = system: SF-268
[38] = system: SF-295
[39] = system: SF-539
[40] = system: SK-MEL-28
[41] = system: SK-MEL-2
[42] = system: SK-OV-3
[43] = system: SN12C
[44] = system: SNB-19
[45] = system: SNB-75
[46] = system: SW-620
[47] = system: T47D
[48] = system: U-251
[49] = system: UACC-257
[50] = system: UACC-62
[51] = system: UO-31
[52] = system: HL-60
[53] = system: HOP-92
[54] = system: IGROV-1
[55] = system: MOLT-4
[56] = system: SK-MEL-5
[57] = system: TK-10

With `Cc1n[nH]c(=O)n1/N=C/c1cccs1` the GI50 [1] was > 100 µM (inactive), the GI50 [2] was > 100 µM (inactive) and the GI50 [3] was > 100 µM (inactive). For the same compound, the GI50 [4] was > 100 µM (inactive), the GI50 [5] was > 100 µM (inactive) and the GI50 [6] was > 100 µM (inactive). The GI50 [7] was > 100 µM (inactive), the GI50 [8] was > 100 µM (inactive) and the GI50 [9] was > 100 µM (inactive). For the same compound, the GI50 [10] was > 100 µM (inactive), the GI50 [11] was > 100 µM (inactive) and the GI50 [12] was > 100 µM (inactive). The GI50 [13] was over 100 µM, the GI50 [14] was > 100 µM (inactive) and the GI50 [15] was > 100 µM (inactive). For the same compound, the GI50 [16] was 36.5 µM (inactive), the GI50 [17] was > 100 µM (inactive) and the GI50 [18] was > 100 µM (inactive). The GI50 [19] was > 100 µM (inactive), the GI50 [20] was > 100 µM (inactive) and the GI50 [21] was > 100 µM (inactive). For the same compound, the GI50 [22] was > 100 µM (inactive), the GI50 [23] was > 100 µM (inactive) and the GI50 [24] was > 100 µM (inactive). The GI50 [25] was > 100 µM (inactive), the GI50 [26] was > 100 µM (inactive) and the GI50 [27] was > 100 µM (inactive). The GI50 [28] was > 100 µM (inactive), the GI50 [29] was > 100 µM (inactive) and the GI50 [30] was > 100 µM (inactive). For the same compound, the GI50 [31] was > 100 µM (inactive), the GI50 [32] was > 100 µM (inactive) and the GI50 [33] was > 100 µM (inactive). The GI50 [34] was > 100 µM (inactive), the GI50 [35] was > 100 µM (inactive) and the GI50 [36] was > 100 µM (inactive). For the same compound, the GI50 [37] was > 100 µM (inactive), the GI50 [38] was > 100 µM (inactive) and the GI50 [39] was > 100 µM (inactive). For the same compound, the GI50 [40] was > 100 µM (inactive), the GI50 [41] was > 100 µM (inactive) and the GI50 [42] was > 100 µM (inactive). The GI50 [43] was > 100 µM (inactive), the GI50 [44] was > 100 µM (inactive) and the GI50 [45] was > 100 µM (inactive). For the same compound, the GI50 [46] was > 100 µM (inactive), the GI50 [47] was > 100 µM (inactive) and the GI50 [48] was > 100 µM (inactive). For the same compound, the GI50 [49] was > 100 µM (inactive), the GI50 [50] was > 100 µM (inactive) and the GI50 [51] was > 100 µM (inactive).

In the case of `Cc1cccc2c(N)c3cccc(C(=O)NCC[N+](C)(C)[O-])c3nc12`, the GI50 [1] is reported as 2.46 µM (inactive), the GI50 [3] is reported as 1.24 µM (inactive) and the GI50 [4] is reported as 2.83 µM (inactive). For the same compound, the GI50 [5] was 15.2 µM (inactive), the GI50 [6] was 3.42 µM (inactive) and the GI50 [7] was 2.49 µM (inactive). The GI50 [8] was 9.57 µM (inactive), the GI50 [9] was 3.02 µM (inactive) and the GI50 [10] was 15.6 µM (inactive). For the same compound, the GI50 [11] was 10.2 µM (inactive), the GI50 [12] was 13.2 µM (inactive) and the GI50 [13] was 11.3 µM. The GI50 [52] was 4.05 µM (inactive), the GI50 [14] was 3.61 µM (inactive) and the GI50 [53] was 10.5 µM (inactive). The GI50 [15] was 6.01 µM (inactive), the GI50 [16] was 5.37 µM (inactive) and the GI50 [54] was 8.39 µM (inactive). For the same compound, the GI50 [17] was 3.13 µM (inactive), the GI50 [18] was > 100 µM (inactive) and the GI50 [19] was 10.4 µM (inactive). The GI50 [20] was 19.2 µM (inactive), the GI50 [21] was 2.1 µM (inactive) and the GI50 [22] was 20.4 µM (inactive). For the same compound, the GI50 [23] was 16.8 µM (inactive), the GI50 [24] was 14.2 µM (inactive) and the GI50 [55] was 0.542 µM (active). The GI50 [25] was 12.7 µM (inactive), the GI50 [26] was 3.05 µM (inactive) and the GI50 [27] was 3.76 µM (inactive). For the same compound, the GI50 [28] was 0.538 µM (active), the GI50 [29] was 6.21 µM (inactive) and the GI50 [30] was 16.1 µM (inactive). For the same compound, the GI50 [31] was 10.3 µM (inactive), the GI50 [32] was 5.32 µM (inactive) and the GI50 [33] was 8.61 µM (inactive). For the same compound, the GI50 [34] was 13.5 µM (inactive), the GI50 [35] was 9.44 µM (inactive) and the GI50 [36] was 12.6 µM (inactive). The GI50 [37] was 1.96 µM (inactive), the GI50 [38] was 6.76 µM (inactive) and the GI50 [39] was 6.82 µM (inactive). The GI50 [40] was 17.3 µM (inactive), the GI50 [41] was 67.5 µM (inactive) and the GI50 [56] was 22.8 µM (inactive). The GI50 [42] was 14 µM (inactive), the GI50 [43] was 3.64 µM (inactive) and the GI50 [44] was 7.87 µM (inactive). For the same compound, the GI50 [45] was 1.32 µM (inactive), the GI50 [46] was 5.53 µM (inactive) and the GI50 [47] was 13.8 µM (inactive). For the same compound, the GI50 [57] was 21.8 µM (inactive), the GI50 [48] was 4 µM (inactive) and the GI50 [49] was 20.6 µM (inactive). For the same compound, the GI50 [50] was 8.99 µM (inactive) and the GI50 [51] was 21.7 µM (inactive).
